Results taken from the supplement of paper PMC4862054.

What was measured:
Conditions in all cases: incubation time: 72 h
HCC1937 = experiment: normalised response (% of control), CellTox Green; higher = less cell death (100 = DMSO, 0 = benzethonium chloride kill control)
How it was run: (§1)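 Breast cancer cell lines (20 µl suspension) were seeded into 384-well plates holding compound at 5 concentrations in 10-fold steps over a compound-specific 10,000-fold range, then incubated 72 h. CellTox Green fluorescence (485/520 nm) was read first, then CellTiter-Glo luminescence after 10 min at room temperature. Each plate was normalised to 0.1 % DMSO (100) and a positive kill control (0). Each value is the normalised signal at a single concentration of the series.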

DU-4475 [1] = experiment: as above
How it was run: as §1

Hs578T = experiment: as above
How it was run: as §1

MFM-223 = experiment: as above
How it was run: as §1

HCC1143 = experiment: as above
How it was run: as §1

CAL-120 [2] = experiment: as above
How it was run: as §1

MDA-MB-231 [3] = experiment: as above
How it was run: as §1

HCC1599 = experiment: as above
How it was run: as §1

MCF-10A = experiment: as above
How it was run: as §1

CAL-85-1 [4] = experiment: as above
How it was run: as §1

BT-549 = experiment: as above
How it was run: as §1

MDA-MB-436 = experiment: as above
How it was run: as §1

CAL-148 [5] = experiment: as above
How it was run: as §1

BT-474 = experiment: as above
How it was run: as §1

MDA-MB-453 [6] = experiment: as above
How it was run: as §1

CAL-51 = experiment: as above
How it was run: as §1

MDA-MB-468 [7] = experiment: as above
How it was run: as §1

HDQ-P1 = experiment: normalised viability (% of control), CellTiter-Blue; higher = more viable cells (about 100 = DMSO control)
How it was run: (§2)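 384-well plates were pre-loaded with compound in 5 µl medium before 20 µl of breast cancer cell suspension was seeded. Following 72 h incubation, 2.5 µl CellTiter-Blue reagent was added for 2 h at 37 °C. Fluorescence was read at 560/590 nm and plates were normalised to vehicle (100) and a positive kill control (0), checked by Z'-factor. Normalised viability is reported at a single listed concentration of the series.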

DU-4475 [8] = experiment: as above
How it was run: as §2

SK-BR-3 = experiment: as above
How it was run: as §2

CAL-120 [9] = experiment: as above
How it was run: as §2

MDA-MB-231 [10] = experiment: as above
How it was run: as §2

MDA-MB-468 [11] = experiment: as above
How it was run: as §2

CAL-85-1 [12] = experiment: as above
How it was run: as §2

CAL-148 [13] = experiment: as above
How it was run: as §2

MDA-MB-453 [14] = experiment: as above
How it was run: as §2

`CS(=O)(=O)OCCCCOS(C)(=O)=O` [Busulfan] (100000 nM) gave a normalised response (HCC1937) of 105%, a normalised response (DU-4475 [1]) of 97.4% and a normalised response (Hs578T) of 123%. The normalised response (MFM-223) was 84.1%, the normalised response (HCC1143) was 94.9% and the normalised response (CAL-120 [2]) was 101%. The normalised response (MDA-MB-231 [3]) was 99.8%, the normalised response (HCC1599) was 108% and the normalised response (MCF-10A) was 95.5%. It also gave a normalised response (CAL-85-1 [4]) of 77.6%, a normalised response (BT-549) of 110% and a normalised response (MDA-MB-436) of 95.6%. It also gave a normalised response (CAL-148 [5]) of 81.5%, a normalised response (BT-474) of 100% and a normalised response (MDA-MB-453 [6]) of 97.6%. It also gave a normalised response (CAL-51) of 106%.
`CCS(=O)(=O)c1cccc(-c2cc(C(=O)NC3CCN(C)CC3)c(C)c3[nH]c4ncc(C)cc4c23)c1` [TAK-901] (100 nM) gave a normalised response (HCC1937) of 91.5%, a normalised response (DU-4475 [1]) of 100% and a normalised response (Hs578T) of 76.4%. The normalised response (MFM-223) was 94%, the normalised response (HCC1143) was 118% and the normalised response (CAL-120 [2]) was 102%. The normalised response (MDA-MB-231 [3]) was 92.3%, the normalised response (HCC1599) was 99.7% and the normalised response (MCF-10A) was 107%. For the same compound, the normalised response (MDA-MB-468 [7]) was -31.9%, the normalised response (CAL-85-1 [4]) was 97.9% and the normalised response (BT-549) was 116%. It also gave a normalised response (MDA-MB-436) of 96.8%, a normalised response (CAL-148 [5]) of 42% and a normalised response (BT-474) of 101%. It also gave a normalised response (MDA-MB-453 [6]) of 107% and a normalised response (CAL-51) of 53.8%.
`CS(=O)(=O)OCCCCOS(C)(=O)=O` [Busulfan] was tested, and the normalised viability (HDQ-P1; 30 nM) was 109%, the normalised viability (HDQ-P1; 300 nM) was 113% and the normalised viability (HDQ-P1; 1000 nM) was 94.4%. It also gave a normalised viability (DU-4475 [8]; 30 nM) of 96.1%, a normalised viability (DU-4475 [8]; 300 nM) of 89.2% and a normalised viability (DU-4475 [8]; 1000 nM) of 94.7%. It also gave a normalised viability (SK-BR-3; 100 nM) of 95.1%, a normalised viability (SK-BR-3; 10000 nM) of 104% and a normalised viability (SK-BR-3; 100000 nM) of 87.8%. The normalised viability (CAL-120 [9]; 100 nM) was 110%, the normalised viability (CAL-120 [9]; 10000 nM) was 105% and the normalised viability (CAL-120 [9]; 100000 nM) was 88.1%. For the same compound, the normalised viability (MDA-MB-231 [10]; 100 nM) was 94.3%, the normalised viability (MDA-MB-231 [10]; 10000 nM) was 95.4% and the normalised viability (MDA-MB-231 [10]; 100000 nM) was 94.3%. The normalised viability (MDA-MB-468 [11]; 100 nM) was 99.1%, the normalised viability (MDA-MB-468 [11]; 10000 nM) was 109% and the normalised viability (MDA-MB-468 [11]; 100000 nM) was 90.5%. The normalised viability (CAL-85-1 [12]; 30 nM) was 106%, the normalised viability (CAL-85-1 [12]; 300 nM) was 101% and the normalised viability (CAL-85-1 [12]; 1000 nM) was 108%. It also gave a normalised viability (CAL-148 [13]; 30 nM) of 124%, a normalised viability (CAL-148 [13]; 300 nM) of 111% and a normalised viability (CAL-148 [13]; 1000 nM) of 115%. It also gave a normalised viability (MDA-MB-453 [14]; 30 nM) of 95.9%, a normalised viability (MDA-MB-453 [14]; 300 nM) of 101% and a normalised viability (MDA-MB-453 [14]; 1000 nM) of 104%.
`CC(C)C[C@H](NC(=O)[C@H](Cc1ccccc1)NC(=O)c1cnccn1)B(O)O` [Bortezomib] was tested, and the normalised viability (HDQ-P1; 0.3 nM) was 79.4%, the normalised viability (HDQ-P1; 3 nM) was 87.9% and the normalised viability (HDQ-P1; 10 nM) was 10.2%. It also gave a normalised viability (DU-4475 [8]; 0.3 nM) of 113%, a normalised viability (DU-4475 [8]; 3 nM) of 93.4% and a normalised viability (DU-4475 [8]; 10 nM) of 98.8%. For the same compound, the normalised viability (SK-BR-3; 1 nM) was 90.2%, the normalised viability (SK-BR-3; 100 nM) was 17.5% and the normalised viability (SK-BR-3; 1000 nM) was 15.6%. It also gave a normalised viability (CAL-120 [9]; 1 nM) of 95.8%, a normalised viability (CAL-120 [9]; 100 nM) of 4.31% and a normalised viability (CAL-120 [9]; 1000 nM) of 3.21%. The normalised viability (MDA-MB-231 [10]; 1 nM) was 92.4%, the normalised viability (MDA-MB-231 [10]; 100 nM) was 2.05% and the normalised viability (MDA-MB-231 [10]; 1000 nM) was 0.27%. The normalised viability (MDA-MB-468 [11]; 1 nM) was 88.3%, the normalised viability (MDA-MB-468 [11]; 100 nM) was 3.55% and the normalised viability (MDA-MB-468 [11]; 1000 nM) was 2.21%. For the same compound, the normalised viability (CAL-85-1 [12]; 0.3 nM) was 104%, the normalised viability (CAL-85-1 [12]; 3 nM) was 92.1% and the normalised viability (CAL-85-1 [12]; 10 nM) was 36.5%. For the same compound, the normalised viability (CAL-148 [13]; 0.3 nM) was 99.6%, the normalised viability (CAL-148 [13]; 3 nM) was 89% and the normalised viability (CAL-148 [13]; 10 nM) was 94.4%. It also gave a normalised viability (MDA-MB-453 [14]; 0.3 nM) of 106%, a normalised viability (MDA-MB-453 [14]; 3 nM) of 112% and a normalised viability (MDA-MB-453 [14]; 10 nM) of 20.9%.
